Source: patent US8871799B2, “Iminochromene anti-viral compounds” (priority 2010, dated 2014)

Key:
HCV2a virus = assay: HCV IF antiviral assay (HCV inhibition assay); type: cell-based, Hepatitis C virus; details: for Number HCV infected cells: Huh7 cells, 80 infected cells at 0 μM
HCV = HCV RNA release by Huh7 cells; type: cell-based, Hepatitis C virus; details: control level 100% in the absence of drug
[1] = tested on: Murine Encephalomyocarditis virus (EMCV); assay: EMCV antiviral assay (MTS cell viability); details: Huh7 cells, 250 pfu EMCV, negative controls ~0.7-0.75

## COc1ccc(/N=c2\oc3ccc(Cl)cc3cc2C(N)=S)cc1 [KIN700]
HCV2a virus; 0, 5 μM, 10 μM and 50 μM
  Change in number of HCV-infected cells with increasing concentration: dose-dependent decrease
HCV2a virus; KIN700 added 5 μM
  Number HCV infected cells: 25
HCV2a virus; KIN700 added 10 μM
  Number HCV infected cells: 13
HCV2a virus; KIN700 added 50 μM
  Number HCV infected cells: 13
HCV; KIN700 at 10 μM
  Level of HCV RNA in supernatant: less than 10%
[1]; 5 μM
  Cell viability post-infection: ~0.8
[1]; 10 μM
  Cell viability post-infection: ~1.5
[1]; 20 μM
  Cell viability post-infection: ~1.7

## interferon [reference compound]
HCV2a virus; positive control, representative experiments
  HCV infection with positive control treatment: completely blocks HCV infection
HCV; Interferon sample
  Level of HCV RNA in supernatant: less than 5%
